US8778871B2 (Takeda Pharmaceutical Company Limited, priority 2004, dated 2014)
Non-standard residues stand in square brackets, D forms with d. Residues, ends and D or L forms follow the SMILES beside them. *: point of attachment. X10 = CNC(=N)NCCC[C@H](NC(=O)[C@H](CC(C)C)NCCN*)C(=O)N[C@@H](Cc1ccccc1)C(N)=O; Acetyl(2-(4-imidazolyl)) = O=C(Cc1c[nH]cn1)*; Phe(4-F) = N[C@@H](Cc1ccc(F)cc1)C(=O)O; Arg(Me) = CNC(=N)NCCC[C@H](N)C(=O)O; 4Pal = N[C@@H](Cc1ccncc1)C(=O)O; d4Pal = N[C@H](Cc1ccncc1)C(=O)O; Cha = N[C@@H](CC1CCCCC1)C(=O)O; Cbz = O=C(OCc1ccccc1)*; Bz = O=C(c1ccccc1)*; azaGly = NNC(=O)O

Target: T1, hOT7T175 (Homo sapiens, UniProt Q969F8)
T1 construct: expressed in transfected cells
Test: Intracellular Ca ion level-increasing activity using FLIPR (180 seconds; specific activity to Metastin (1-54))
Assay type: cell-based
Conditions: hOT7T175/CHO, change in intracellular calcium ion level for 180 seconds, Tables 21-23

T1 sequence (Q969F8 whole entry L364H): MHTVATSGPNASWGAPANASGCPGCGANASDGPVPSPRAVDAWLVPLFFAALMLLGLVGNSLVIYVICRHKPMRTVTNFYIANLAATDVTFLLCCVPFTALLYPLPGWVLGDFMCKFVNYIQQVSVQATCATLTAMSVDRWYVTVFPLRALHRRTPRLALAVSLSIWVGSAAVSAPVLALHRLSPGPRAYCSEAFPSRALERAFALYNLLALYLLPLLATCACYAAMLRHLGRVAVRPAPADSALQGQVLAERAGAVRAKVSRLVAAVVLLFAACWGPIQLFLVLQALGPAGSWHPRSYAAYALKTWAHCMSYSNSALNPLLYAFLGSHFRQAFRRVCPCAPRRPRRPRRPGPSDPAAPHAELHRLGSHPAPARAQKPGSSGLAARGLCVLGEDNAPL

Molecule	intracellular Ca ion level-increasing activity [specific activity to Metastin (1-54)]
CNC(=N)NCCC[C@H](NC(=O)[C@H](CC(C)C)NC(=O)NNC(=O)[C@H](Cc1ccccc1)NC(=O)[C@H](CO)NC(=O)[C@H](CC(N)=O)NC(=O)[C@@H](Cc1ccncc1)NC(=O)[C@H](CC(N)=O)NC(=O)[C@H](N)Cc1ccc(O)cc1)C(=O)N[C@@H](Cc1ccccc1)C(N)=O [Compound No. 302, D-Tyr-Asn-D-Pya(4)-Asn-Ser-Phe-AzaGly-Leu-Arg(Me)-Phe-NH2] (H-[dY]N[d4Pal]NSF[azaGly]L[Arg(Me)]F-NH2)	2
CNC(=N)NCCC[C@H](NC(=O)[C@H](CC(C)C)NC(=O)NNC(=O)[C@H](Cc1ccccc1)NC(=O)[C@H](CO)NC(=O)[C@H](CC(N)=O)NC(=O)[C@H](Cc1ccncc1)NC(=O)[C@@H](CC(N)=O)NC(=O)[C@@H](N)Cc1ccc(O)cc1)C(=O)N[C@@H](Cc1ccccc1)C(N)=O [Compound No. 304, Tyr-D-Asn-Pya(4)-Asn-Ser-Phe-AzaGly-Leu-Arg(Me)-Phe-NH2] (H-Y[dN][4Pal]NSF[azaGly]L[Arg(Me)]F-NH2)	3
CNC(=N)NCCC[C@H](NC(=O)[C@H](CC(C)C)NC(=O)NNC(=O)[C@H](Cc1ccccc1)NC(=O)[C@H](CO)NC(=O)[C@H](CC(N)=O)NC(=O)[C@H](CC1CCCCC1)NC(=O)[C@@H](CC(N)=O)NC(=O)[C@H](N)Cc1ccncc1)C(=O)N[C@@H](Cc1ccccc1)C(N)=O [Compound No. 306, D-Pya(4)-D-Asn-Cha-Asn-Ser-Phe-AzaGly-Leu-Arg(Me)-Phe-NH2] (H-[d4Pal][dN][Cha]NSF[azaGly]L[Arg(Me)]F-NH2)	2
CNC(=N)NCCC[C@H](NC(=O)[C@H](CC(C)C)NCCNC(=O)[C@H](Cc1ccccc1)NC(=O)[C@H](CO)NC(=O)[C@H](CC(N)=O)NC(=O)[C@H](Cc1c[nH]c2ccccc12)NC(=O)[C@H](CC(N)=O)NC(=O)[C@H](N)Cc1ccc(O)cc1)C(=O)N[C@@H](Cc1ccccc1)C(N)=O [Compound No. 307, D-Tyr-Asn-Trp-Asn-Ser-Phe-GlyΨ(CH2NH)Leu-Arg(Me)-Phe-NH2] (H-[dY]NWNSF-X10)	1
CNC(=N)NCCC[C@H](NC(=O)[C@H](CC(C)C)NC(=O)NNC(=O)[C@H](Cc1ccccc1)NC(=O)[C@H](CO)NC(=O)[C@H](CC(N)=O)NC(=O)[C@@H](NC(=O)[C@@H](CC(N)=O)NC(=O)[C@H](N)Cc1ccc(O)cc1)[C@@H](C)O)C(=O)N[C@@H](Cc1ccc(F)cc1)C(N)=O [Compound No. 316, D-Tyr-D-Asn-Thr-Asn-Ser-Phe-AzaGly-Leu-Arg(Me)-Phe(4F)-NH2] (H-[dY][dN]TNSF[azaGly]L[Arg(Me)][Phe(4-F)]-NH2)	1
CNC(=N)NCCC[C@H](NC(=O)[C@H](CC(C)C)NC(=O)NNC(=O)[C@H](Cc1ccccc1)NC(=O)[C@H](CO)NC(=O)[C@H](CC(N)=O)NC(=O)[C@H](Cc1ccncc1)NC(=O)[C@@H](CC(N)=O)NC(=O)[C@H](N)Cc1ccc(O)cc1)C(=O)N[C@@H](Cc1ccc(F)cc1)C(N)=O [Compound No. 317, D-Tyr-D-Asn-Pya(4)-Asn-Ser-Phe-AzaGly-Leu-Arg(Me)-Phe(4F)-NH2] (H-[dY][dN][4Pal]NSF[azaGly]L[Arg(Me)][Phe(4-F)]-NH2)	1
CNC(=N)NCCC[C@H](NC(=O)[C@H](CC(C)C)NC(=O)NNC(=O)[C@H](Cc1ccccc1)NC(=O)[C@H](CO)NC(=O)[C@H](CC(N)=O)NC(=O)Cc1c[nH]cn1)C(=O)N[C@@H](Cc1ccccc1)C(N)=O [Compound No. 323, 4-Imidazoleacetyl-Asn-Ser-Phe-AzaGly-Leu-Arg(Me)-Phe-NH2] ({Acetyl(2-(4-imidazolyl))}-NSF[azaGly]L[Arg(Me)]F-NH2)	1
(2R)-2-Benzoyloxy-3-phenylpropionyl-AzaGly-Leu-Arg(Me)-Trp-NH2 [Compound No. 412]	⅕
(2S)-2-Benzoyloxy-3-phenylpropionyl-AzaGly-Leu-Arg(Me)-Trp-NH2 [Compound No. 380]	5
(2S)-2-acetoxy-3-phenylpropionyl-AzaGly-Leu-Arg(Me)-Trp-NH2 [Compound No. 373]	2
(R)-3-hydroxy-2-methylpropionyl-Phe-AzaGly-Leu-Arg(Me)-Trp-NH2 [Compound No. 452]	1
(S)-1-(Quinolin-8-yl-carbamoyl)-4-thiapentylcarbamoyl-D-Tyr-Asn-Trp-Asn-Ser-Phe-Gly-Leu-Arg(Me)-Phe-NH2 [Compound No. 400]	1
Ac-F[azaGly]L[Arg(Me)]F-NH2 [Compound No. 346]	2
Benzoyl-AzaPhe-AzaGly-Leu-Arg(Me)-Trp-NH2 [Compound No. 431]	1
Benzoyl-PheΨ(CH2O)Gly-Leu-Arg(Me)-Trp-NH2 [Compound No. 421]	⅓
Benzoyl-Pya(2)-AzaGly-Leu-Arg(Me)-Trp-NH2 [Compound No. 441]	1
Benzoyl-Pya(4)-AzaGly-Leu-Arg(Me)-Trp-NH2 [Compound No. 442]	½
Benzyl-Phe-AzaGly-Leu-Arg(Me)-Trp-NH2 [Compound No. 450]	⅓
Benzylphenethylcarbamoyl-AzaGly-Leu-Arg(Me)-Trp-NH2 [Compound No. 417]	1
Bz-A[azaGly]L[Arg(Me)]W-NH2 [Compound No. 392]	⅕
Bz-FGLRF-NH2 [Compound No. 351]	½
Cbz-F[azaGly]L[Arg(Me)]F-NH2 [Compound No. 348]	⅕
Cbz-[azaGly]L[Arg(Me)]W-NH2 [Compound No. 374]	⅓
Cyclohexanecarbonyl-Phe-AzaGly-Leu-Arg(Me)-Trp-NH2 [Compound No. 439]	2
D-Tyr-D-Pya(4)-Asn-Ser-Phe-AzaGly-Leu-Har(Me)-Phe-NH2 [Compound No. 489]	½
D-Tyr-D-Pya(4)-Asn-Ser-Phe-AzaGly-Leu-Lys-Phe-NH2 [Compound No. 487]	1
D-Tyr-D-Pya(4)-Asn-Ser-Phe-AzaGly-Leu-Orn-Phe-NH2 [Compound No. 486]	½
D-Tyr-Pya(4)-Phe-AzaGly-Leu-Arg(Me)-Trp-NH2 [Compound No. 495]	⅙
